Assays:
[1] = tested on: Pseudomonas aeruginosa mucoid strain; test: MIC broth microdilution (second mucoid strain, Table 3 r49); format: cell-based; details: amylase (100 IU/L) pre-incubation time 0
Description: (§1) Antimicrobial activity was measured using broth microdilution in a minimum inhibitory concentration (MIC) assay according to the Clinical and Laboratory Standards Institute (formerly NCCLS; 2003, Methods for Dilution Antimicrobial Susceptibility Tests for Bacteria That Grow Aerobically, Approved Standard—Sixth Edition. M7A6. Clinical and Laboratory Standards Institute. Wayne, Pa.). Test organisms were suspended in Mueller Hinton cation adjusted broth (100 μL, 1-5×10^4 CFU/mL) and incubated in 96-well microtitre plates in serial two-fold dilutions of the test compounds.
(§2) The antimicrobial activity of dextrin-colistin was also determined following incubation of the conjugate with amylase. Dextrin-colistin conjugates (3 mg/mL colistin eq.) were first incubated with amylase (100 IU/L for up to 48 h at 37° C. in PBS buffer (pH 8.2)).

HK2 kidney cells = test: MTT assay, cell viability; format: cell-based, human; details: 72 h incubation
Description: The MTT assay was used to assess cell viability (72 h incubation) in a human kidney (HK2) cell line. Cells were seeded into sterile 96-well microtitre plates (1×10^5 cells/mL) in 0.1 mL/well of media (DMEM) containing FCS (10% v/v). They were allowed to adhere for 24 h. The medium was then removed and test compounds (0.2 μm filter-sterilized) were added to the cells. To study the effect of colistin, CMS, dextrin-colistin conjugate and succinoylated dextrin (8,000 g/mol, 1.1 mol % succinoylation) on cell viability, complete media (+FCS) was supplemented with a range of concentrations of each. To study the effect of ‘unmasked’ dextrin-colistin on cell viability, complete media (+FCS) was supplemented with a range of concentrations of conjugate and amylase (100 IU/L). After a further 67 h incubation, MTT (20 μL of a 5 mg/mL solution in PBS) was added to each well and the cells were incubated for a further 5 h. The medium was then removed and the precipitated formazan crystals solubilized by addition of optical grade DMSO (100 μL) over 30 min. Absorbance was measured at 540 nm using a microtitre plate reader. Cell viability was expressed as a percentage of the viability of untreated control cells. The IC50 values were expressed as mean±SEM (n=18).

human amylase = target: T1, human amylase (Homo sapiens, UniProt P0DUB6); test: Release of colistin from dextrin-colistin conjugates by amylase (FPLC); format: in vitro ADME; details: amylase 100 IU/L in PBS, 37° C., CMS: hydrolysis in PBS
T1 construct: α-amylase from human saliva; purchased Sigma-Aldrich (Poole, UK); host or cells: human saliva (natural source)
T1 sequence (P0DUB6 16-511): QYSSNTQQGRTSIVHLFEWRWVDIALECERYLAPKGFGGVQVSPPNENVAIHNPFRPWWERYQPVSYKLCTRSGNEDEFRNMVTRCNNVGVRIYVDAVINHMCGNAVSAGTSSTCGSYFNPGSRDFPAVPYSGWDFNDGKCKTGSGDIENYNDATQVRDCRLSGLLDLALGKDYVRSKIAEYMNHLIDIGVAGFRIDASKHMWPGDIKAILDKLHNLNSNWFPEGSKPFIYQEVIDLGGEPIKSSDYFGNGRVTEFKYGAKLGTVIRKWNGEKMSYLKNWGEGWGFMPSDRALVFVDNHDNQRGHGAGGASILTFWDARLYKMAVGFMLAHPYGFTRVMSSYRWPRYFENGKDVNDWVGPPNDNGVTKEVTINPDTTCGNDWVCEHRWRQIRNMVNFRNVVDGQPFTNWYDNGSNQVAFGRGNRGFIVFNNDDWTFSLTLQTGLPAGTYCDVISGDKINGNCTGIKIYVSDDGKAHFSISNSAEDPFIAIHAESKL
Description: To compare the rate of amylase degradation of dextrin, succinoylated dextrin and dextrin-colistin conjugates, solutions (3 mg/mL in PBS, pH 7.4) of each sample was prepared containing amylase (100 IU/L in PBS) and incubated at 37° C. for up to 48 h. At various time points, samples (300 μL) were taken, immediately snap frozen in liquid nitrogen to stop the reaction and then stored at −20° C. until analysis by GPC and FPLC (conjugates only). Prior to analysis, samples were placed in a water bath (100° C.) for 5 min to denature the enzyme activity of the amylase and stop polymer degradation. The supernatant was then analysed by GPC to determine the change in molecular weight over time and by FPLC to determine the change in free colistin over time.

[2] = tested on: Pseudomonas aeruginosa mucoid strain; test: MIC broth microdilution (first mucoid strain, Table 3 r46); format: cell-based; details: amylase (100 IU/L) pre-incubation time 0
Description: as §1, §2

[3] = tested on: Klebsiella pneumoniae 5725; test: MIC broth microdilution; format: cell-based; details: amylase (100 IU/L) pre-incubation time 0
Description: as §1, §2

[4] = tested on: Acinetobacter haemolyticus 1554; test: MIC broth microdilution; format: cell-based; details: amylase (100 IU/L) pre-incubation time 0
Description: as §1, §2

[5] = tested on: Klebsiella pneumoniae IR25; test: MIC broth microdilution; format: cell-based; details: amylase (100 IU/L) pre-incubation time 0
Description: as §1, §2

[6] = tested on: Providencia stuartii IR57; test: MIC broth microdilution; format: cell-based; details: amylase (100 IU/L) pre-incubation time 0
Description: as §1, §2

[7] = tested on: Pseudomonas aeruginosa R22 PSA; test: MIC broth microdilution; format: cell-based; details: amylase (100 IU/L) pre-incubation time 0
Description: as §1, §2

[8] = tested on: Acinetobacter baumannii MDR ACB; test: MIC broth microdilution; format: cell-based; details: amylase (100 IU/L) pre-incubation time 0
Description: as §1, §2

Acinetobacter lwoffi = test: MIC broth microdilution; format: cell-based; details: amylase (100 IU/L) pre-incubation time 0
Description: as §1, §2

Escherichia coli AIM-1 = test: MIC broth microdilution; format: cell-based; details: amylase (100 IU/L) pre-incubation time 0
Description: as §1, §2

Klebsiella pneumoniae K3 = test: MIC broth microdilution; format: cell-based; details: amylase (100 IU/L) pre-incubation time 0
Description: as §1, §2

Escherichia coli 5702 = test: MIC broth microdilution; format: cell-based; details: amylase (100 IU/L) pre-incubation time 0
Description: as §1, §2

[9] = tested on: Pseudomonas aeruginosa PA01; test: MIC broth microdilution; format: cell-based; details: amylase (100 IU/L) pre-incubation time 0
Description: as §1, §2

[10] = tested on: Acinetobacter lwoffi 6056; test: MIC broth microdilution; format: cell-based; details: amylase (100 IU/L) pre-incubation time 0
Description: as §1, §2

[11] = tested on: Acinetobacter baumannii 7789; test: MIC broth microdilution; format: cell-based; details: amylase (100 IU/L) pre-incubation time 0
Description: as §1, §2

Escherichia coli 7273 = test: MIC broth microdilution; format: cell-based; details: amylase (100 IU/L) pre-incubation time 0
Description: as §1, §2

[12] = tested on: Pseudomonas aeruginosa MDR 301 PSA; test: MIC broth microdilution; format: cell-based; details: amylase (100 IU/L) pre-incubation time 0
Description: as §1, §2

Acinetobacter baumannii = test: MIC broth microdilution; format: cell-based; details: amylase (100 IU/L) pre-incubation time 0
Description: as §1, §2

[13] = tested on: Klebsiella pneumoniae KP05 506; test: MIC broth microdilution; format: cell-based; details: amylase (100 IU/L) pre-incubation time 0
Description: as §1, §2

LPS from E. coli = test: LAL assay (endotoxin neutralisation); format: biochemical; details: 4 μg/mL
Description: A colorimetric assay technique was used in which the clotting reaction of Limulus amoebocyte lysate (LAL) in the presence of LPS was measured spectrophotometrically at 540 nm.
LPS was dissolved in pyrogen free water (0-50 ng/mL) containing colistin, CMS, dextrin-colistin or unmasked dextrin-colistin (4 μg/mL, 100 μL) in pyrogen-free vials. Control samples contained only LPS dissolved in pyrogen-free water. Solutions were mixed well and incubated at 37° C. for 3 h. Reconstituted LAL (100 μL) was then added and the solution mixed well before incubation at 37° C. for 45 min. Next, reconstituted substrate solution (100 μL) was added to each vial, mixed well and incubated for a further 6 min. Finally, the reaction was terminated by addition of reconstituted stop solution and colour stabilisers. Samples (100 μL) were pipetted into the wells of a 96-well microtitre plate (6 wells per sample) and absorption was read spectrophotometrically at 540 nm. The concentration of LPS producing 50% maximal absorption was taken as the ED50.
To study the effect of amylase on the activity of dextrin-colistin conjugates, dextrin-colistin conjugates (0.5 mg/mL) were first incubated with amylase (100 IU/L) for 6 and 24 h at 37° C. in PBS (pH 8.2). The endotoxin binding activity assays were then followed as described above.

Substance | MIC [1] | IC50 (cell viability) (HK2 kidney cells) [µg/mL] | % colistin release after 24 h (human amylase) [%] | MIC [2] | MIC [3] | MIC [4] | MIC [5] | MIC [6] | MIC [7] | MIC [8] | MIC (Acinetobacter lwoffi) | MIC (Escherichia coli AIM-1) | MIC (Klebsiella pneumoniae K3) | MIC (Escherichia coli 5702) | MIC [9] | MIC [10] | MIC [11] | MIC (Escherichia coli 7273) | MIC [12] | MIC (Acinetobacter baumannii) | other results
colistin methanesulfonate [CMS] | 0.25 | 25 | 23.6 | 1 | 1 | 8 | 2 | 1 | 0.5 | 4 | 4 | 0.25 | 2 | 1 | 1 | 2 | 2 | 2 | 1 | 4 | MIC [13]: 2
colistin | 0.008 | 20 | 100 | 0.01 | 0.03 | 4 | 0.03 | 0.01 | 0.03 | 0.125 | 0.25 | 0.01 | 0.06 | 0.03 | 0.06 | 0.03 | 0.03 | <0.5 | 0.125 | 0.03 | inhibition of cleavage of chromogenic substrate by E. coli LPS (LPS from E. coli): able to inhibit; LPS required to trigger Limulus amoebocyte lysate gelation compared to LPS in water (LPS from E. coli; preincubated 3 h at 37° C.): 20 fold; MIC [13]: 0.125

— patent publication US8835380B2, “Therapeutic conjugates” (University College Cardiff Consultants Limited, priority 2010, dated 2014)
